SMILES strings stand for the structures. Activity calls are given as the source filed them.

One assay has as its target Large T antigen (Simian virus 40, UniProt P03070). It counts as functional, Betapolyomavirus macacae.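 Further: Confirmatory-stage PubChem screen for compounds that inhibit SV40 T antigen.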
The target in assay [1] is T1, High affinity choline transporter 1 (Homo sapiens, UniProt Q9GZV3).
T1 sequence (Q9GZV3 whole entry): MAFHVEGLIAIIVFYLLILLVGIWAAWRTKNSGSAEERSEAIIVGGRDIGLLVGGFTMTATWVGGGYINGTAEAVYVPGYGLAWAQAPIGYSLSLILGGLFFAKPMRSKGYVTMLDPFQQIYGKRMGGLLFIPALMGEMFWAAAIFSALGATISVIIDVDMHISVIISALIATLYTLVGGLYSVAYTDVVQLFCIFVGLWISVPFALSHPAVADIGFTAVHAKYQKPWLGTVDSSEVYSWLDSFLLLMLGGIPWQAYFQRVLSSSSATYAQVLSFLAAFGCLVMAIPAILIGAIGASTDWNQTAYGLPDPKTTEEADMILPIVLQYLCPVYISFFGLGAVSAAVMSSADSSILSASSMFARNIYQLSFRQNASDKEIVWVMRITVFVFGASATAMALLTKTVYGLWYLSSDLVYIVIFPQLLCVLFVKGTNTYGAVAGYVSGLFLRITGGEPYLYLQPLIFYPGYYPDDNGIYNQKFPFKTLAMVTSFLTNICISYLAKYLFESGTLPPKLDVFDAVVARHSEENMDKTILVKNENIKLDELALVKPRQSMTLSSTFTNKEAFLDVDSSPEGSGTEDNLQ
The experiment in a line: CHT inhibitors, dose response, cell-based, 5-point CRC, membrane potential dye (AID 504840). It counts as functional.

In assay [2] the target is Endoplasmic reticulum aminopeptidase 1 (Homo sapiens, UniProt Q9NZ08). In words: ERAP1 aminopeptidase inhibitors, dose response, biochemical, cherry-pick, set 2, plate reader (AID 743314).
Sequence of Endoplasmic reticulum aminopeptidase 1 (Q9NZ08 whole entry): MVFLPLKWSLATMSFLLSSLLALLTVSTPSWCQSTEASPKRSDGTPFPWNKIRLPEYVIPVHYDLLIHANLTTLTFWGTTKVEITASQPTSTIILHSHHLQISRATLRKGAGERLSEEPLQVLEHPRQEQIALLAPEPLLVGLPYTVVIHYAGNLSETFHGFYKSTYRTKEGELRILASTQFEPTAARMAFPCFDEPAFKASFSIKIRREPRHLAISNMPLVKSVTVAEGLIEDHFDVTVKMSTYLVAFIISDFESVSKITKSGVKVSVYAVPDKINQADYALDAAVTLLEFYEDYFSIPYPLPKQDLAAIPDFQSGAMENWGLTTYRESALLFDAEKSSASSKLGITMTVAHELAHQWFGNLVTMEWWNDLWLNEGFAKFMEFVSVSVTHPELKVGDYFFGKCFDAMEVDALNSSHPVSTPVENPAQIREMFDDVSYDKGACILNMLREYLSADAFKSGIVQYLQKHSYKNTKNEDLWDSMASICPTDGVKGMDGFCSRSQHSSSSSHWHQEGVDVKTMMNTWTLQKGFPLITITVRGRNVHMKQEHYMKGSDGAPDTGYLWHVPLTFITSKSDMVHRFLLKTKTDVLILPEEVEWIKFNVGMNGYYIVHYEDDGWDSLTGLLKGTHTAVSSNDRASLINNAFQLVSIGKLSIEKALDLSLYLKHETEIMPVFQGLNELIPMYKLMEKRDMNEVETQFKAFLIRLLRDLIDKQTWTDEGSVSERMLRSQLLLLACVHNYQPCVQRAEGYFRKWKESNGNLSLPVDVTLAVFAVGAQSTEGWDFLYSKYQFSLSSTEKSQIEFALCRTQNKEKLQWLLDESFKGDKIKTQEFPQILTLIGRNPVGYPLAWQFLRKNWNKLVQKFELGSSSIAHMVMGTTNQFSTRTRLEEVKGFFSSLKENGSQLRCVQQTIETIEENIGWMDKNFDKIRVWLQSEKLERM
Assay [3] can be described thus: Late stage assay provider results from the probe development effort to identify selective inhibitors of heat shock protein 90 (HSP90): Absorbance-based cell proliferation assay in SKBR3 cells. It counts as functional. To be noted: SK-BR-3.
Assay [4] is described as follows: Late stage assay provider results from the probe development effort to identify selective inhibitors of heat shock protein 90 (HSP90): Absorbance-based cell proliferation assay in MCF7 cells. It counts as functional.
Assay [5] deals with HEK293. In words: NOD1 signaling inhibitors, primary screen, cell-based, luminescence, uHTS (AID 1578). It counts as functional. To be noted: Homo sapiens.
In assay [6] the test system is HEK293. In words: cells. It counts as functional, cell-based. The note with it: Homo sapiens.
Assay [7] concerns HEK293. In words: cells. It counts as functional, cell-based. The note with it: Homo sapiens. This is another data set of the same source.
Assay [8] addresses Nucleotide-binding oligomerization domain-containing protein 2 (Homo sapiens, UniProt Q9HC29). The experiment in a line: NOD2 signaling inhibitors, cell-based, luminescence, uHTS, HEK293 (AID 1566). It counts as functional.
Assay [9] deals with HEK293. In words: NOD2 signaling inhibitors in MDP-stimulated cells, cell-based, uHTS, luminescence (AID 2001). It counts as functional. The note with it: Homo sapiens.
Assay [10] has as its system HEK293. In words: cells. It counts as functional, cell-based. To be noted: Homo sapiens. This is another data set of the same source.
Assay [11] in a line: microbe, parasite or virus in culture. It counts as functional. The note with it: Mycobacterium tuberculosis.
Assay [12] addresses T2, Sentrin-specific protease 7 (Homo sapiens, UniProt Q9BQF6).
T2 sequence (Q9BQF6 whole entry): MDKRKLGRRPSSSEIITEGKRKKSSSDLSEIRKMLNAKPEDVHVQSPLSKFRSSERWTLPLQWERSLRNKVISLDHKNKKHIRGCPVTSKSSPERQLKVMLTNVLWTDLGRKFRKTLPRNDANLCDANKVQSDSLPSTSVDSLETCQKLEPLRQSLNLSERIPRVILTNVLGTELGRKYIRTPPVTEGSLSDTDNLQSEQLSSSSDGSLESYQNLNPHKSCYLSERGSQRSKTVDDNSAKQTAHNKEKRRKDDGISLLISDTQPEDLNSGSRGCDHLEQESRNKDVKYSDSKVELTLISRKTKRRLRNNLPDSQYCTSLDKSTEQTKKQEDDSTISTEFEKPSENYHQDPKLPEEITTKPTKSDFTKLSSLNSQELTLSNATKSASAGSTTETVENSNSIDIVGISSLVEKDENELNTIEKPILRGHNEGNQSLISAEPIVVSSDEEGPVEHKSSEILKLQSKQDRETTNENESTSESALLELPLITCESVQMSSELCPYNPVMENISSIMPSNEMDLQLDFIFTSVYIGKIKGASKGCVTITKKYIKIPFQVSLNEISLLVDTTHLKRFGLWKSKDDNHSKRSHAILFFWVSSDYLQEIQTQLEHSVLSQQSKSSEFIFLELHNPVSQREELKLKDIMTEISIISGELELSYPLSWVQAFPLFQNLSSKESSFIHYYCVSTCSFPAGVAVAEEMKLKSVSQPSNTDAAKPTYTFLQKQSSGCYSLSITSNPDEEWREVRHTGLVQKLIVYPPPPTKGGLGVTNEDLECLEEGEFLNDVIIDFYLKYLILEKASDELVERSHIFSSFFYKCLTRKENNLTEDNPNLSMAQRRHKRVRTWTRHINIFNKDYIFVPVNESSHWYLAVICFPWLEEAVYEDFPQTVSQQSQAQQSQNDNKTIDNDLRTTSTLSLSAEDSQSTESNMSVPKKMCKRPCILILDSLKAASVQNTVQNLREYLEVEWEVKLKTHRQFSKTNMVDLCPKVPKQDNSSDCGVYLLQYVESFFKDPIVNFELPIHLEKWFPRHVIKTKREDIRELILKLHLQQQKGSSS
It counts as functional.

In assay [13] the target is T3, Sentrin-specific protease 6 (Homo sapiens, UniProt Q9GZR1).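 Further: Luminescence-based dose-response confirmatory assay of SENP6 inhibition, following up an ultra-high-throughput screen.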
T3 sequence (Q9GZR1 whole entry): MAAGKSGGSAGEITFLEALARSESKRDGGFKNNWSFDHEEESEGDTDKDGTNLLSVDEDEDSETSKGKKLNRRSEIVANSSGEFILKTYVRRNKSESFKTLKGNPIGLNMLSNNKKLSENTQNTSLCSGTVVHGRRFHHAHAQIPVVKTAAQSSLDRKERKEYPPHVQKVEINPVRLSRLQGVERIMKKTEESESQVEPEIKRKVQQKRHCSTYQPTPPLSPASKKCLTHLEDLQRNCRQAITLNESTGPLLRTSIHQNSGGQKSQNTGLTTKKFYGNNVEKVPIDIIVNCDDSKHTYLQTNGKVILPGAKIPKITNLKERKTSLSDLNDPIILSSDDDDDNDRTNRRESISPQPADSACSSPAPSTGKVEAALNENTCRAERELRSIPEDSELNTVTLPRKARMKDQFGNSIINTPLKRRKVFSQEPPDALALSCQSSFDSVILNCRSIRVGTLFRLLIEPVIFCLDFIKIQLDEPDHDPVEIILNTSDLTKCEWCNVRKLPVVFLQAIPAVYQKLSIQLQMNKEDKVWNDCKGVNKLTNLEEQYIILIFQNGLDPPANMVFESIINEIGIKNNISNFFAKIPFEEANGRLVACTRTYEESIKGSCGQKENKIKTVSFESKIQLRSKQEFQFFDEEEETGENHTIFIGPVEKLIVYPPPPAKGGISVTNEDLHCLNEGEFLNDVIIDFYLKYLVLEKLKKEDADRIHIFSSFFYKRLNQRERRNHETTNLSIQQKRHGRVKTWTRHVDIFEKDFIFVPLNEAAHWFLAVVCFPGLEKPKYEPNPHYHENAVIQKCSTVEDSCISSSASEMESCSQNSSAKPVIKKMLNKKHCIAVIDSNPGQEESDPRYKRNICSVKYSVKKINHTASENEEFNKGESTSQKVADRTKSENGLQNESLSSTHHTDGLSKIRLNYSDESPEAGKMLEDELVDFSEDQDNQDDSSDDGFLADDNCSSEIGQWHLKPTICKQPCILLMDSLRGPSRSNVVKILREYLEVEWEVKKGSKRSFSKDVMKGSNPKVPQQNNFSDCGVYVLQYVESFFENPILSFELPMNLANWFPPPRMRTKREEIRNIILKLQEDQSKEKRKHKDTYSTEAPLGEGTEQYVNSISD
It counts as functional.

Assay [14] concerns the target T4, Sentrin-specific protease 8 (Homo sapiens, UniProt Q96LD8).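 Further: luminescence read-out of SENP8 inhibition, dose-response confirmation following an ultra-high-throughput screen.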
T4 sequence (Q96LD8 whole entry): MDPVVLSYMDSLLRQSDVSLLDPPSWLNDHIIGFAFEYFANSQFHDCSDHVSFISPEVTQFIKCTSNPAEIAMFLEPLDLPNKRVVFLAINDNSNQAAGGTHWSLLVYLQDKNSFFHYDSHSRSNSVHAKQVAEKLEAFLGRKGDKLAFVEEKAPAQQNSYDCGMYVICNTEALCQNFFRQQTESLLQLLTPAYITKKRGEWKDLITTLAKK
It counts as functional.

The nature of assay [15]: HepG2 cell cytotoxicity, dose response, cytotoxicity control, ATP luminescence, cherry-pick, activator set 2 (AID 1053143). It counts as functional, cell-based.
The target of assay [16] is Potassium channel subfamily K member 9 (Homo sapiens, UniProt Q9NPC2). The experiment in a line: TASK3 (KCNK9) channel inhibitors, thallium flux, SAR follow-up, selectivity assay for TASK1 inhibitor project, cell-based, FluxOR thallium flux, concentration-response (AID 652211).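 Further: potency is for inhibitors of the channel.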 It counts as functional.
Assay [17] concerns the target Potassium channel subfamily K member 3 (Homo sapiens, UniProt O14649). The experiment in a line: TASK1 (KCNK3) potassium channel inhibitors, SAR follow-up, CHO cells, FluxOR thallium flux (AID 652212). It counts as functional.
In another assay the target is Cytochrome P450 2C19 (Homo sapiens, UniProt P33261). In words: qHTS Assay for Inhibitors and Substrates of Cytochrome P450 2C19. [Related pubchem assays: 410 ]. It counts as ADME. To be noted: read-out: Potency.
Sequence of Cytochrome P450 2C19 (P33261 whole entry): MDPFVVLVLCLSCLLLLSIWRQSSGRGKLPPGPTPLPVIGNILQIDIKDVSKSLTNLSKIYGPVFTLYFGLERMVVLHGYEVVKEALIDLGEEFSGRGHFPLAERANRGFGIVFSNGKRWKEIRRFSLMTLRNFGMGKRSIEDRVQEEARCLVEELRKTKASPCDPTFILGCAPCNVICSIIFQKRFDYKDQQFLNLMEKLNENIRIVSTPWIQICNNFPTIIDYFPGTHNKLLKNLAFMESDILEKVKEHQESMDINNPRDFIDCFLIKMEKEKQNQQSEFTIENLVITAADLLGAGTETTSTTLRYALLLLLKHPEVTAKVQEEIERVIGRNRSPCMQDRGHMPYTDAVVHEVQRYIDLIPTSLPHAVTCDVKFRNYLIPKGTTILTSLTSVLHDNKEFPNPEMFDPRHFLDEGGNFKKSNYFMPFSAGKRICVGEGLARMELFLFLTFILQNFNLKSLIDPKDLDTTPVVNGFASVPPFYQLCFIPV
Assay [18] can be described thus: CEM21 cell cytotoxicity, dose response, cytotoxicity control, plate reader, dry powder (AID 687026). It counts as functional, cell-based.
The next assay addresses Cytochrome P450 3A4 (Homo sapiens, UniProt P08684). To be noted: Potency.
Assay [19] deals with Metabotropic glutamate receptor 5 (Rattus norvegicus, UniProt P31424). The experiment in a line: Identification of a glycine sulfonamide based non-MPEP site positive allosteric potentiator (PAM) of mGlu5 (calcium_assay). It counts as functional.
Sequence of Metabotropic glutamate receptor 5 (P31424 whole entry): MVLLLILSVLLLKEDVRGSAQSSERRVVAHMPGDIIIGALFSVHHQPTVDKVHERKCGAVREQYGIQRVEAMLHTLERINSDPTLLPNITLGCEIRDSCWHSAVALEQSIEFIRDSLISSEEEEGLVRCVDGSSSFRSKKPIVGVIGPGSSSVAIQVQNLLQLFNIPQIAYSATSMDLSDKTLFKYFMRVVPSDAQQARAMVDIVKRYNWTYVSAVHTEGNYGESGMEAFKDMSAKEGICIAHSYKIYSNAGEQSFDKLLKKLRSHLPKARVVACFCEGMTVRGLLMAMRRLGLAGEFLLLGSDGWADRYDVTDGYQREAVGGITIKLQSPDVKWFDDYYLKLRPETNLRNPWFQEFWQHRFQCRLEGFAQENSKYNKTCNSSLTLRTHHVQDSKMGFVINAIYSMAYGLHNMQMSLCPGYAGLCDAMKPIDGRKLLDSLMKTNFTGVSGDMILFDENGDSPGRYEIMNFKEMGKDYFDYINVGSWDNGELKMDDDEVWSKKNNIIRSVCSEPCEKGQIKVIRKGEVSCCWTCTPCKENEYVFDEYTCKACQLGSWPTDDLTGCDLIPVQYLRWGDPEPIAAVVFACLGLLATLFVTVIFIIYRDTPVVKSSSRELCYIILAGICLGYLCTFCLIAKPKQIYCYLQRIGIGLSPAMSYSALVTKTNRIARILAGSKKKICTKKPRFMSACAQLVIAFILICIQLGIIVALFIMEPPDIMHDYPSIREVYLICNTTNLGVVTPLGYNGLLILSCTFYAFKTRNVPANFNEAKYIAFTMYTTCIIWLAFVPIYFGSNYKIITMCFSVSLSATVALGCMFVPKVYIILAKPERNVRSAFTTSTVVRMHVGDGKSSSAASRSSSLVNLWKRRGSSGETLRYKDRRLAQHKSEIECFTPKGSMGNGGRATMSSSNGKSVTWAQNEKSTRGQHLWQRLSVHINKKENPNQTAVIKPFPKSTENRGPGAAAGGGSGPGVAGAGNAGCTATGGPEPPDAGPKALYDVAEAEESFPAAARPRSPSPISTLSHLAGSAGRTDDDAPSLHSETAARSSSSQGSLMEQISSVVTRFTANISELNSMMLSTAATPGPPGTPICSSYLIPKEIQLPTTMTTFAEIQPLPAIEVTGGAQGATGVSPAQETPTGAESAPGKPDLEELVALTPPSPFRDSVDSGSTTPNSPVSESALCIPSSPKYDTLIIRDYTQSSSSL
For assay [20], the target named is Metabotropic glutamate receptor 3 (Rattus norvegicus, UniProt P31422). The experiment in a line: mGlu3 negative allosteric modulator potency, dose response, HEK/GIRK cells, thallium flux, rat (AID 651839). It counts as functional.
In assay [21] the target is T5, Oxysterols receptor LXR-beta (Homo sapiens, UniProt P55055).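 Further: agonist activity at LXR measured by a cell-based luminescence readout across a dose range, run as a counterscreen for daf-12 agonists; HEK293 cells with Gal4-LXR fusion and GAL4-driven luciferase reporter; potency for activation of Gal4-LXR reporter so compounds are agonists.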
T5 sequence (P55055 whole entry): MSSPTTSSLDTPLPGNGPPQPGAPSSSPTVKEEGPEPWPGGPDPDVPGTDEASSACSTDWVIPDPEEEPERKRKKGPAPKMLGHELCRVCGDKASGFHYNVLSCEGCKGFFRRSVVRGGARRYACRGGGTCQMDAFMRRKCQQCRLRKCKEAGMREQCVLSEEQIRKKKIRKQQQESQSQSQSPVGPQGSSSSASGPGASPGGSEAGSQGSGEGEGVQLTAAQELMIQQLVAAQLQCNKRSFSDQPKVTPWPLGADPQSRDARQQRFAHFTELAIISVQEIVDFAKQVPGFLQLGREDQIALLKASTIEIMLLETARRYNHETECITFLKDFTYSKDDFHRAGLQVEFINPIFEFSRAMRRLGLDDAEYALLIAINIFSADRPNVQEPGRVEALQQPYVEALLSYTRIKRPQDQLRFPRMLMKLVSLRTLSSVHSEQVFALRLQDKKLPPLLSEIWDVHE
It counts as functional, cell-based.

Sequence of Cytochrome P450 3A4 (P08684 whole entry): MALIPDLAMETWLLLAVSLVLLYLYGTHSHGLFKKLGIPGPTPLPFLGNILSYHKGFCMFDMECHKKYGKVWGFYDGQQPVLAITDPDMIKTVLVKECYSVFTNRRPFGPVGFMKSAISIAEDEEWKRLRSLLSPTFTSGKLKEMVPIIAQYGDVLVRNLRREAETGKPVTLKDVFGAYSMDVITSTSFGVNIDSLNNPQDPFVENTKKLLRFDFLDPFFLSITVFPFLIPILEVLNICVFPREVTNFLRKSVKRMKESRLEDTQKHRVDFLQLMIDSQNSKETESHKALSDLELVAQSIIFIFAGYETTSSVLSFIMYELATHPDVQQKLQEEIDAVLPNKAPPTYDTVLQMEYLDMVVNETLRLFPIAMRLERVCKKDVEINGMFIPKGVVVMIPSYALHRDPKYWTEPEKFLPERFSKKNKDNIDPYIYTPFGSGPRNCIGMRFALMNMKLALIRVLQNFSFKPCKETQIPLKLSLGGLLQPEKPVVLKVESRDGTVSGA
Sequence of Nucleotide-binding oligomerization domain-containing protein 2 (Q9HC29 whole entry, the tested form may be a part): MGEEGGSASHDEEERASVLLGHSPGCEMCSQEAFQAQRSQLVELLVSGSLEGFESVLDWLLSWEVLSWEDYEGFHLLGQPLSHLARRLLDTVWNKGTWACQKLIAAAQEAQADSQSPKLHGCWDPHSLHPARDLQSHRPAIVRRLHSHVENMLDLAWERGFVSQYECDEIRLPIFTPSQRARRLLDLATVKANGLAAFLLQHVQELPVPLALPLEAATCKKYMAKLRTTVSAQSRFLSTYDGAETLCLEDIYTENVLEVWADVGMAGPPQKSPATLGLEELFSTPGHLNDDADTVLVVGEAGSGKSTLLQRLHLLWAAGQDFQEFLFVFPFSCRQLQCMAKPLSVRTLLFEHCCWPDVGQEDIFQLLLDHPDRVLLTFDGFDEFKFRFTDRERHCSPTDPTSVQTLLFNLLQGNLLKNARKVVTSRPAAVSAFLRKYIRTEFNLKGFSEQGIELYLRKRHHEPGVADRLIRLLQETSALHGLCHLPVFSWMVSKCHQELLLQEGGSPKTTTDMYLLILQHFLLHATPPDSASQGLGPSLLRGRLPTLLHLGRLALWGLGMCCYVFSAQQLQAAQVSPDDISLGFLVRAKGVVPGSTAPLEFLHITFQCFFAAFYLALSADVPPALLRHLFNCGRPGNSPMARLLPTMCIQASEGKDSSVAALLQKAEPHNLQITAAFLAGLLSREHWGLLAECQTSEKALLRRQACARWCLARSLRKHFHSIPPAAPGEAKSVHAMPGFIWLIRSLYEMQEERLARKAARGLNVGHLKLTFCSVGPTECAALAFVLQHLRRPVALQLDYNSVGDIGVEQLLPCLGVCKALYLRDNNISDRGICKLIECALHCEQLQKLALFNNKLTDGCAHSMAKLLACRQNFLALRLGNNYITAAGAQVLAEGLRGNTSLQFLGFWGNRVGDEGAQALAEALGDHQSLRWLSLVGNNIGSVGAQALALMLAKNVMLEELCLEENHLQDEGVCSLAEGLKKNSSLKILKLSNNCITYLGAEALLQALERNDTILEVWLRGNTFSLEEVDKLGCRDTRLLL
Sequence of Large T antigen (P03070 whole entry): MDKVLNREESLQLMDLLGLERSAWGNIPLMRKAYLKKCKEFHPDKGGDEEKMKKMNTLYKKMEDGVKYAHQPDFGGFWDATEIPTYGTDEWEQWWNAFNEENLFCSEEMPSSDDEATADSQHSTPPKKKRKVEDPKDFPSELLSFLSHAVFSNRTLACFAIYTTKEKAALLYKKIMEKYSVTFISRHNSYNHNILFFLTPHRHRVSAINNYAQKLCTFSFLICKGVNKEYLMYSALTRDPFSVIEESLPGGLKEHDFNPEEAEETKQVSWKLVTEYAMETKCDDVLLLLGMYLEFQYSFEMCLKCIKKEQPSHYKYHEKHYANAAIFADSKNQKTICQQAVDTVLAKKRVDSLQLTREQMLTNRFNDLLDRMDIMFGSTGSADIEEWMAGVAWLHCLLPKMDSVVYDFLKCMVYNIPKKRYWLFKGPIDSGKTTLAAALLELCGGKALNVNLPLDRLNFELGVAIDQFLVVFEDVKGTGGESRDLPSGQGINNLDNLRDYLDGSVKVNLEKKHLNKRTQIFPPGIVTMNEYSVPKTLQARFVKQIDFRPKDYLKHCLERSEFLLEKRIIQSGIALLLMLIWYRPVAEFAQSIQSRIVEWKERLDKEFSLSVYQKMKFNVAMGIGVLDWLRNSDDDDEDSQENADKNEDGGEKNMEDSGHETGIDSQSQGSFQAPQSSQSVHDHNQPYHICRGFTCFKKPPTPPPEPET

For orientation: IC50 means the concentration at which inhibition is half-maximal. Turning to `CSC1=NS(=O)(=O)c2c(C)nn(C)c2S1`, the 50% inhibitory concentration (IC50) at Large T antigen was 32.8 µM (active); in [1], 10.7 µM (active). In addition, in assay [2], the AC50 is 18.7 µM (active).
Consider `O=C(O)CCCCOc1ccc2cc(Br)c(=O)oc2c1`, for which the IC50 in assay [3] and in assay [4] was > 100 µM (inactive) throughout.
By EC50 is commonly meant the concentration at which the effect is half-maximal. As to `CCOc1cccc(/C=C/c2ccc3cccc(O)c3n2)c1O`, the EC50 (with HEK293 [5]; in assay [8]) was > 20 µM (inactive) throughout. The IC50 in the assay with HEK293 [6] was 11.5 µM (active); in the assay on HEK293 [7], > 20 µM (inactive); in the assay with HEK293 [9], 3.71 µM (inactive); in the assay with HEK293 [10], > 20 µM (inactive); in assay [12] it was 4.32 µM (active); in assay [13] it was 7.66 µM (active). In [14], the IC50 was > 100 µM (inactive). For the same compound, the CC50 in assay [11] was 35.7 µM (active). Also, the AC50 in [15] is 26 µM (active).
Take `COc1ccccc1C(=O)Nc1cccc(NC(=O)c2cccc3ccccc23)c1`: the IC50 in assay [16] is 240 nM (active); in [17] it was 3 nM (active).
In the case of `N=C1Sc2ccccc2C2=NCCCN12`, the AC50 is 6.31 µM (inconclusive) at Cytochrome P450 2C19, > 70 µM (inactive) in assay [18] and 25.1 µM (inconclusive) at Cytochrome P450 3A4.
In the case of `CC(C(=O)Nc1ccc(F)nc1)N(c1ccccc1Cl)S(C)(=O)=O` (centres undefined), the concentration for a half-maximal effect (EC50) in assay [19] is 10 µM (inconclusive).
Consider `COc1ccc(-c2ccc3cc(C(=O)N4CCCC(CO)C4)ccc3c2)c(OC)c1` (centres undefined), for which the IC50 in assay [20] is 9.87 µM (active).
Take `Cc1scc(C(=O)N/N=C/c2ccsc2)c1C`: the EC50 in assay [21] is > 67.6 µM (inactive).

The values above are taken from ChEMBL document CHEMBL1201862, “PubChem BioAssay data set” (2004).
